As a reminder, the Ki is the dissociation constant of the complex between target and ligand, obtained from inhibition or displacement. A lower Ki goes with tighter binding.

This assay has as its target T1, bovine liver catalase (BLC) (Bos taurus, UniProt P00432).
T1 construct: gene CAT
T1 sequence (P00432 2-527): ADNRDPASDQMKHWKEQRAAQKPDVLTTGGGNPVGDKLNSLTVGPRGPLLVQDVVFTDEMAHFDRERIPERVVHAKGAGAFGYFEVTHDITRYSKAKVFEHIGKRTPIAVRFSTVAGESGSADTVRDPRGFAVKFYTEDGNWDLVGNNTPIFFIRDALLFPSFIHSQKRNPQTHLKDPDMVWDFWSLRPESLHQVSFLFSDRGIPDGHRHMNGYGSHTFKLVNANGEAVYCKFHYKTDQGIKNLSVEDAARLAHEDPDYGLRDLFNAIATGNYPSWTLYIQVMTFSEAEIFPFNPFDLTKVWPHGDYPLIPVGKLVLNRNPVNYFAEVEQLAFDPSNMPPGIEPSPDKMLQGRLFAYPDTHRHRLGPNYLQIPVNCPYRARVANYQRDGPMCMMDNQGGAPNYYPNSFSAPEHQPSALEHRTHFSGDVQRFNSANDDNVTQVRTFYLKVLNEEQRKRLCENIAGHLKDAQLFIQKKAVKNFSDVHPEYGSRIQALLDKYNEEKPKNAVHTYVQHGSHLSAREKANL
As to the kind of experiment: UV kinetics of H2O2 decomposition at […] nm, Lineweaver-Burk (IC50 about […]); supported by fluorescence quenching, UV-vis and ATR-FTIR. The class given is biochemical.

Regarding `O=C1C=C(O)C(=O)c2ccccc21` [LAW, 2-hydroxy-1,4-naphtoquinone], the Ki is 15.8 µM.
